Test results published in patent publication US9505710B2 (priority 2015, dated 2016).
Where a name gives a salt, the structure may show the parent alone.

target: BoNT/A LC1-429 (Clostridium botulinum, UniProt P0DPI1); experiment: biochemical; details: BoNT/A Ki (nM)
Sequence (P0DPI1 1-429, added parts left off): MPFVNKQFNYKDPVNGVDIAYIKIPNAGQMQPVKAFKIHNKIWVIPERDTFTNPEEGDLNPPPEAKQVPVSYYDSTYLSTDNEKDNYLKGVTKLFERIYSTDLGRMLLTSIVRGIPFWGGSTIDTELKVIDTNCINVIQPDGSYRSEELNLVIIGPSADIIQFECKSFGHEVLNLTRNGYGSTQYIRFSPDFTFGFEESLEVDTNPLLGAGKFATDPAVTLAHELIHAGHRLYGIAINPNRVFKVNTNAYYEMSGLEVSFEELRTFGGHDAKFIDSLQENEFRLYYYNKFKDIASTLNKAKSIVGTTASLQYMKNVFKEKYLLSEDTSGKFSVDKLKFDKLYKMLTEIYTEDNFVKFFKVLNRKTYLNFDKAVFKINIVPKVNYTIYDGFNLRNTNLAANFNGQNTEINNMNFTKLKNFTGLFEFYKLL

Compound | Ki
CO[C@H](CC(=O)NO)[C@H](Cc1ccc(Cl)cc1)c1ccc(C(=O)N2CCOCC2)cc1 [Example 4-6, (3R,4R)-5-(4-chlorophenyl)-N-hydroxy-3-methoxy-4-(4-(morpholine-4-carbonyl)phenyl)pentanamide] | 11.4 nM
CO[C@H](CC(=O)NO)[C@H](Cc1ccc(Cl)cc1)c1ccc(C(=O)N2CCCCC2)cc1 [Example 4-7, (3R,4R)-5-(4-chlorophenyl)-N-hydroxy-3-methoxy-4-(4-(piperidine-1-carbonyl)phenyl)pentanamide] | 5.5 nM
CCO[C@H](CC(=O)NO)[C@H](Cc1ccc(Cl)cc1)c1ccc(C(=O)N2CCN(C(=O)OC(C)(C)C)CC2)cc1 [Example 4-8, tert-butyl 4-(4-((2R,3R)-1-(4-chlorophenyl)-3-ethoxy-5-(hydroxyamino)-5-oxopentan-2-yl)benzoyl)piperazine-1-carboxylate] | 22 nM
CCO[C@H](CC(=O)NO)[C@H](Cc1ccc(Cl)cc1)c1ccc(C(=O)N2CCNCC2)cc1 [Example 4-9, (3R,4R)-5-(4-chlorophenyl)-3-ethoxy-N-hydroxy-4-(4-(piperazine-1-carbonyl)phenyl)pentanamide] | 9.2 ± 6.1 nM
CCO[C@H](CC(=O)NO)[C@H](Cc1ccc(Cl)cc1)c1ccc(C(=O)N(CCO)CCO)cc1 [Example 4-10, 4-((2R,3R)-1-(4-chlorophenyl)-3-ethoxy-5-(hydroxyamino)-5-oxopentan-2-yl)-N,N-bis(2-hydroxyethyl)benzamide] | 16.7 nM
CO[C@H](CC(=O)NO)[C@H](Cc1ccc(Cl)cc1)c1ccc(Cl)c(Br)c1 [Example 5-1, (3R,4R)-4-(3-bromo-4-chlorophenyl)-5-(4-chlorophenyl)-N-hydroxy-3-methoxypentanamide] | 5.2 nM
CO[C@H](CC(=O)NO)[C@H](Cc1ccc(Cl)cc1)c1ccc(Cl)c(CN2CCCCC2)c1 [Example 5-2, (3R,4R)-4-(4-chloro-3-(piperidin-1-ylmethyl)phenyl)-5-(4-chlorophenyl)-N-hydroxy-3-methoxypentanamide] | 3.7 nM
CO[C@H](CC(=O)NO)[C@H](Cc1ccc(Cl)cc1)c1ccc(Cl)c(C(=O)N2CCCCC2)c1 [Example 5-3, (3R,4R)-4-(4-chloro-3-(piperidine-1-carbonyl)phenyl)-5-(4-chlorophenyl)-N-hydroxy-3-methoxypentanamide] | 13.1 nM
CO[C@H](CC(=O)NO)[C@H](Cc1ccc(Cl)cc1)c1ccc(F)cc1F [Example 5-4, (3R,4R)-5-(4-chlorophenyl)-4-(2,4-difluorophenyl)-N-hydroxy-3-methoxypentanamide] | 3.95 nM
CO[C@H](CC(=O)NO)[C@H](Cc1ccc(Cl)cc1)c1cc(F)c(F)c(F)c1 [Example 5-5, (3R,4R)-5-(4-chlorophenyl)-N-hydroxy-3-methoxy-4-(3,4,5-trifluorophenyl)pentanamide] | 5.36 nM
CO[C@H](CC(=O)NO)[C@H](Cc1ccc(Cl)cc1)c1cc(F)c(F)c(F)c1F [Example 5-6, (3R,4R)-5-(4-chlorophenyl)-N-hydroxy-3-methoxy-4-(2,3,4,5-tetrafluorophenyl)pentanamide] | 4.95 nM
CCO[C@H](CC(=O)NO)[C@H](Cc1ccc(Cl)cc1)c1ccc(Cl)cc1 [Example 6-1, (3R,4R)-4,5-bis(4-chlorophenyl)-3-ethoxy-N-hydroxypentanamide] | 4.9 nM
CO[C@H](CC(=O)NO)[C@H](Cc1ccc(Cl)cc1)c1ccc(F)cc1 [Example 6-2, (3R,4R)-5-(4-chlorophenyl)-4-(4-fluorophenyl)-N-hydroxy-3-methoxypentanamide potassium salt] | 13 nM
CCO[C@H](CC(=O)NO)[C@H](Cc1ccc(Cl)cc1)c1ccc(F)cc1 [Example 6-3, (3R,4R)-5-(4-chlorophenyl)-3-ethoxy-4-(4-fluorophenyl)-N-hydroxypentanamide potassium salt] | 8.9 nM
CO[C@H](CC(=O)NO)[C@H](Cc1ccc(Cl)cc1C)c1ccc(F)cc1 [Example 6-4, (3R,4R)-5-(4-chloro-2-methylphenyl)-4-(4-fluorophenyl)-N-hydroxy-3-methoxypentanamide] | 1.48 nM
CO[C@H](CC(=O)NO)[C@H](Cc1ccc(Cl)cc1C)c1ccc(F)cc1 [Example 6-5, (3R,4R)-5-(4-chloro-2-methylphenyl)-4-(4-fluorophenyl)-N-hydroxy-3-methoxypentanamide potassium salt] | 3.88 nM
CCO[C@H](CC(=O)NO)[C@H](Cc1ccc(Cl)cc1Cl)c1ccc(Br)cc1 [Example 6-6, (3R,4R)-4-(4-bromophenyl)-5-(2,4-dichlorophenyl)-3-ethoxy-N-hydroxypentanamide] | 4.9 nM
CO[C@H](CC(=O)NO)[C@H](Cc1ccc(Cl)cc1)c1ccc(C(=O)N(C)C)cc1 [Example 6-7, 4-((2R,3R)-1-(4-chlorophenyl)-5-(hydroxyamino)-3-methoxy-5-oxopentan-2-yl)-N,N-dimethylbenzamide] | 26.2 nM
CO[C@H](CC(=O)NO)[C@H](Cc1ccc(Cl)cc1C)c1ccc(CN2CCOCC2)cc1F [Example 6-8, (3R,4R)-5-(4-chloro-2-methylphenyl)-4-(2-fluoro-4-(morpholinomethyl)phenyl)-N-hydroxy-3-methoxypentanamide] | 45.8 nM
CCO[C@H](CC(=O)NO)[C@H](Cc1ccc(Cl)cc1)c1ccc(Cl)c(N2CCOCC2)c1 [Example 6-9, (3R,4R)-4-(4-chloro-3-morpholinophenyl)-5-(4-chlorophenyl)-3-ethoxy-N-hydroxypentanamide] | 5.8 nM
CCO[C@H](CC(=O)NO)[C@H](Cc1ccc(Cl)cc1C)c1ccc(F)cc1F [Example 6-10, (3R,4R)-5-(4-chloro-2-methylphenyl)-4-(2,4-difluorophenyl)-3-ethoxy-N-hydroxypentanamide] | 10 nM
CCO[C@H](CC(=O)NO)[C@H](Cc1ccc(Cl)cc1)c1ccc(F)cc1F [Example 6-11, (3R,4R)-5-(4-chlorophenyl)-4-(2,4-difluorophenyl)-3-ethoxy-N-hydroxypentanamide] | 10.3 nM
CO[C@H](CC(=O)NO)[C@H](Cc1ccc(F)cc1F)c1ccc(F)cc1F [Example 6-12, (3R,4R)-4,5-bis(2,4-difluorophenyl)-N-hydroxy-3-methoxypentanamide] | 29.5 nM
O=C(C[C@@H](OCc1ccccc1)[C@H](Cc1ccc(Cl)cc1)c1ccc(F)cc1F)NO [Example 6-13, (3R,4R)-3-(benzyloxy)-5-(4-chlorophenyl)-4-(2,4-difluorophenyl)-N-hydroxypentanamide] | 114 nM
COCCO[C@H](CC(=O)NO)[C@H](Cc1ccc(Cl)cc1)c1ccc(F)cc1F [Example 6-14, (3R,4R)-5-(4-chlorophenyl)-4-(2,4-difluorophenyl)-N-hydroxy-3-(2-methoxyethoxy)pentanamide] | 55.1 nM
CCCCO[C@H](CC(=O)NO)[C@H](Cc1ccc(Cl)cc1)c1ccc(F)cc1F [Example 6-15, (3R,4R)-3-butoxy-5-(4-chlorophenyl)-4-(2,4-difluorophenyl)-N-hydroxypentanamide] | 48.5 nM
CCCO[C@H](CC(=O)NO)[C@H](Cc1ccc(Cl)cc1)c1ccc(F)cc1F [Example 6-16, (3R,4R)-5-(4-chlorophenyl)-4-(2,4-difluorophenyl)-N-hydroxy-3-propoxypentanamide] | 38.5 nM
O=C(C[C@@H](OCC1CC1)[C@H](Cc1ccc(Cl)cc1)c1ccc(F)cc1F)NO [Example 6-17, (3R,4R)-5-(4-chlorophenyl)-3-(cyclopropylmethoxy)-4-(2,4-difluorophenyl)-N-hydroxypentanamide] | 52.4 nM
